Assay results taken from patent US4797427A, “Aromatic diamines containing sulfonic acid aryl esters, a process for their production and their use in the production of polyurethane plastics” (Bayer Aktiengesellschaft, priority 1987, dated 1989).

Assay: Ames test
Type: cell-based

Cc1c(N)cc(S(=O)(=O)Oc2ccccc2)cc1N [2,6-diaminotoluene-4-sulfonic acid phenyl ester]
Ames test: Ames-negative
